Data reported in PMC2009657, “Mammalian cell transformation in vitro. Six tests for carcinogenicity” (British Journal of Cancer, 1978).

test system: tester cells of the transformation assay; details: not given

| Compound | Toxicity in the assay |
| --- | --- |
| C=CCl [Vinyl chloride] | No toxicity observe(d |

test system: not given; details: in vivo; cited from earlier work

| Compound | Carcinogenicity, Lit. |
| --- | --- |
| O=C(O)CCCc1ccc(N(CCCl)CCCl)cc1 [Chlorambucil] | + |
| c1ccc2c(c1)cc1ccc3cc4ccccc4c4ccc2c1c34 [3,4,9,10-Dibenzpyrene] | + |
| CC(=O)Nc1ccc2c(c1)Cc1ccccc1-2 [2-Acetylaminofluorene] | + |
| Cc1cc(-c2ccc(N)c(C)c2)ccc1N [3,3'-Dimethylbenzidine] | + |
| c1ccc2cc3ccccc3cc2c1 [Anthracene] | - |
| Nc1ccc(N=Nc2ccccc2)cc1 [4-Aminoazobenzene] | + |
| Nc1ccc(-c2ccccc2)cc1 [4-Aminobiphenyl] | + |
| ClCOCCl [Bis(Chloromethyl)ether] | + |
| COc1ccc(N)cc1 [p-Anisidine] | - |
| C=CCc1ccc2c(c1)OCO2 [Safrole] | + |
| O=C1c2ccccc2C(=O)c2ccccc21 [Anthraquinone] | - |
| CC(=O)Nc1cccc2c1-c1ccccc1C2 [4-Acetylaminofluorene] | - |
| Nc1ccccc1-c1ccccc1 [2-Aminobiphenyl] | + |
| Croton oil | + |
| Nc1ccc2ccccc2c1S(=O)(=O)O [2-Aminonaphthalene-1-sulphonic acid] | - |
| CCOS(C)(=O)=O [Ethyl methanesulphonate] | + |
| CC(C(O)c1ccccc1)N(C)N=O (stereo not shown) [N-Nitrosoephedrine] | + |
| c1cc2cccc3c4cccc5cccc(c(c1)c23)c54 [Perylene] | - |
| O=P1(N(CCCl)CCCl)NCCCO1 (stereo not shown) [Cyclophosphamide] | + |
| ClC1=C(Cl)[C@]2(Cl)[C@@H]3[C@@H]4C[C@@H]([C@H]5O[C@@H]45)[C@@H]3[C@@]1(Cl)C2(Cl)Cl [Dieldrin] | - |

| Compound | Carcinogenicity, Lit. |
| --- | --- |
| Nc1ccc(-c2ccc(N)cc2)cc1 [Benzidine] | + |
| Oc1cccc2ccccc12 [1-Naphthol] | - |
| Nc1ccccc1C(=O)O [Anthranilic acid] | - |
| Cc1c2ccccc2c(C)c2ccccc12 [9,10-Dimeuthylanthracene] | + |
| Clc1ccc(C(c2ccc(Cl)cc2)C(Cl)(Cl)Cl)cc1 [D.D.T.] | - |
| Nc1ccc2ccccc2c1 [2-Naphthylamine] | + |
| O=[N+]([O-])c1ccc(F)c([N+](=O)[O-])c1 [2,4-Dinitrofluorobenzene] | + |
| c1ccc(Nc2ccc3ccccc3c2)cc1 [N-phenyl-2-naphthylamine] | - |
| CN(C)P(=O)(N(C)C)N(C)C [Hexamethylphosphoramide] | + |
| Cyanocobalamin [Cyanocobalamin (B12)] | - |
| Nc1ccc(Cc2ccc(N)c(Cl)c2)cc1Cl | + |
| c1ccc2c(c1)ccc1cc3ccc4ccccc4c3nc12 [3,4,5,6-Dibenzacridine] | + |
| Nc1ccccc1 [Aniline] | - |
| Nc1cc2c3ccccc3ccc2c2ccccc12 [6-Aminochrysene] | + |
| c1ccc(-c2ccccc2)cc1 [Biphenyl] | - |
| c1ccc2cc3c(ccc4ccccc43)cc2c1 [1,2-Benzanthracene] | + |
| c1ccc2ccccc2c1 [Naphthalene] | - |
| Nc1ccc2c(c1)Cc1cc(N)ccc1-2 [2,7-Diaminofluorene] | + |
| CC/C(=C(/CC)c1ccc(O)cc1)c1ccc(O)cc1 [Diethylstilboestrol] | + |
| Cc1ccc(O)c(N=Nc2c(O)cc(S(=O)(=O)O)c3ccccc23)c1 [Calmagite] | - |

| Compound | Carcinogenicity, Lit. |
| --- | --- |
| O=C1c2ccccc2-c2cccc3cccc1c23 [Benzathrone] | - |
| Nc1ccc2ccc3cccc4ccc1c2c34 [3-Aminopyrene] | + |
| CN(C)c1ccc(N=Nc2ccccc2)cc1 [4-Dimethylaminoazobenzene] | + |
| C1CCC(NC2CCCCC2)CC1 [Dicyclohexylamine] | - |
| Cycasin acetate | + |
| Cc1ccc2cc3c(ccc4ccccc43)c3c2c1CC3 [20-Methylcholanthrene] | + |
| O=S1(=O)CCCCO1 [Butanesultone] | + |
| c1ccc2c(c1)cc1ccc3cccc4ccc2c1c34 [3,4-Benzpyrene] | + |
| c1ccc2[nH]cnc2c1 [Benzimidazole] | - |
| Morgan's base | + |
| c1ccc2cc(Nc3ccc(Nc4ccc5ccccc5c4)cc3)ccc2c1 [N,N'-Bis(2-naphthyl)-p-phenylenediamine] | - |
| O=C(O)c1ccccc1 [Benzoic acid] | - |
| Nc1ccc2c(ccc3c4ccccc4ccc23)c1 [2-Aminochrysene] | + |
| O=C(O)COc1ccc(Cl)cc1Cl [2,4-Dichlorophenoxyacetate] | - |
| O=[N+]([O-])c1ccccc1-c1ccccc1 [2-Nitrobiphenyl] | + |
| COc1cc(-c2ccc(N)c(OC)c2)ccc1N [3,3'-Dimethoxybenzidine] | + |
| CCN(CC)N=O [Diethylnitrosamine] | + |
| NN [Hydrazine] | + |
| Nc1ccc(-c2ccc(N)c(Cl)c2)cc1Cl [3,3'-Dichlorobenzidine] | + |
| NC1CCCCC1 [Cyclohexylamine] | - |
